{"source": "patent US20100022444A1", "about": "“COMBINATION THERAPY FOR MODULATION OF ACTIVITY AND DEVELOPMENT OF CELLS AND TISSUES” (BodyBio, Inc., priority 2008, published 2010)", "origin": "cited, not measured here", "tested_on": "mouse model of Bulbar ALS", "conditions": "oral administration"}
{"smiles": "CCCC(=O)[O-].[Na+]", "note": "[sodium butyrate]", "values": [{"measurement": "acetylation of nuclear histone in neural tissues", "result": "increased acetylation of nuclear histone in neural tissues"}, {"measurement": "neurological phenotypes", "result": "successfully ameliorated neurological phenotypes"}]}
